Results on ten molecules are retold here after patent publication US5441944A, “Substituted cyclodextrin sulfates and their uses as growth modulating agents” (The Trustees of the University of Pennsylvania, priority 1992, dated 1995).

The test system of data set [1] is tumor angiogenesis in hamster cheek pouches. The note with it: Shubik et al. 1976, cited from earlier work.
The subject of data set [2] is tumor angiogenesis in rabbit corneas. The note with it: Gross et al. 1981; cited from earlier work.
The subject of the next data set is capillary growth; tumors. Conditions: cited from earlier work.
Data set [3] is described as follows: conductivity measurements in deionized water. In kind it is physicochemical. The source says: Conductivity is an accepted method for measuring the degree of ionic substitution and can be used to evidence the addition of a charged group, such as sulfate to a compound. […] Results of conducting measurements obtained in deionized water having a background conductivity of 2.5 (±0.2)×[…] mho/cm are shown in Table I.

Data set [4] can be described thus: dye staining analysis for high density sulfate saccharides (Alcian Blue, alumina TLC plate). In kind it is physicochemical. Conditions: 0.8 mg/ml sample, 1 μl spot; 0.5 mg/ml Alcian Blue, 0.25M acetate buffer, 5.6 pH. The method, then: Such complexing behavior has been utilized in histology, for selective staining to indicate high sulfur natural saccharides such as heparin (Snow et al., 1987, Human Pathology 18:506-510 and Dorling, 1969, Med. Lab. Techn. 26:124-130).
The following procedure was used to detect the presence of high density sulfate groups. An alumina TLC plate (Analtech, Newark, Del.) was spotted with a drop (1 μl) of a sample (0.8 mg/ml) to be tested. The spot or spots were dried for 10 minutes at about 60° C. Aqueous solution of 0.5 mg/ml of Alcian Blue (8GX, Aldrich), buffered with 0.25M acetate buffer at 5.6 pH is allowed to rise along the plate up to and past the test spot.

Data set [5] is classed as physicochemical. The note with it: water. The method, then:
The substituted CD sulfates useful in the present invention are highly hydrophilic and therefore very water soluble, with a solubility of at least 20 gm/100 ml in water at 0° C. Without wishing to be bound by theory, we believe that a highly hydrophilic character is important to allow interaction with cellular surfaces. We also believe a very high water solubility of the derivative is an important factor which cooperatively interacts with the inherent complexing ability of the CD structure to provide effective inhibition of angiogenesis with an exogenous steroid, as provided by this invention. We believe that the hydrophilic activity is roughly indicated by the affinity to water, as measured by water solubility. It is important to measure the same at 0° C. since at higher temperatures the most suitable derivatives have solubilities so high that it is difficult to obtain meaningful measurements.

Consider `C[C@H]1C[C@@H]2[C@H]([C@@H](O)C[C@@]3(C)[C@H]2CC[C@]3(O)C(=O)CO)[C@@]2(C)C=CC(=O)C=C12` [6 α-methyl prednisolone], for which the tumor growth entry in data set [1] is reported as “tumor growth was not stopped”. The “suppression of tumor angiogenesis” value in data set [1] (under certain conditions) is “partially suppressed tumor angiogenesis”.

Regarding `C[C@]12CCC(=O)C=C1CC[C@@H]1[C@@H]2C(=O)C[C@@]2(C)[C@H]1CC[C@]2(O)C(=O)CO` [cortisone, 17 alpha, 21-dihydroxy-4-pregene-3,11,20-trione], the “inhibition of tumor angiogenesis” value in data set [2] is listed as “to a lesser extent cortisone, inhibited tumor angiogenesis”. For the same molecule, the “inhibition of capillary growth” value with capillary growth; tumors (cortisone by itself) was “does not have the ability to inhibit capillary growth”. Also, the tumor growth entry in the data set with capillary growth; tumors (large amounts of cortisone, many other publications) is given as “continued growth of tumors”.

On to `C[C@@H]1C[C@H]2[C@@H]3CCC4=CC(=O)C=C[C@]4(C)[C@@]3(F)[C@@H](O)C[C@]2(C)[C@@]1(O)C(=O)CO` [dexamethasone], for which, in data set [2], the “inhibition of tumor angiogenesis” value is recorded as “inhibited tumor angiogenesis”.

Regarding `C[C@]12CC[C@@H]3c4ccc(O)cc4CC[C@H]3[C@@H]1CC[C@@H]2O` [estradiol], the “inhibition of tumor angiogenesis” value in data set [2] is reported as “ineffective”.

As for `CC(=O)[C@@]1(O)CC[C@H]2[C@@H]3C[C@H](C)C4=CC(=O)CC[C@]4(C)[C@H]3CC[C@@]21C` [medroxyprogestrone], the “inhibition of tumor angiogenesis” value in data set [2] was “inhibited tumor angiogenesis”.

With `C[C@]12CC[C@H]3[C@@H](CCC4=CC(=O)CC[C@@]43C)[C@@H]1CC[C@@H]2O` [testosterone], the “inhibition of tumor angiogenesis” value in data set [2] is “ineffective”.

In the case of `OC[C@H]1O[C@@H]2O[C@H]3[C@H](O)[C@@H](O)[C@@H](O[C@H]4[C@H](O)[C@@H](O)[C@@H](O[C@H]5[C@H](O)[C@@H](O)[C@@H](O[C@H]6[C@H](O)[C@@H](O)[C@@H](O[C@H]7[C@H](O)[C@@H](O)[C@@H](O[C@H]8[C@H](O)[C@@H](O)[C@@H](O[C@H]1[C@H](O)[C@H]2O)O[C@@H]8CO)O[C@@H]7CO)O[C@@H]6CO)O[C@@H]5CO)O[C@@H]4CO)O[C@@H]3CO` [β-cyclodextrin], the Conductivity result in data set [3] is given as “immeasurable”.

As for “n-tetrapropoxy-β-cyclodextrin [n-tetrapropoxy β-cyclodextrin]”, the Conductivity result in data set [3] is on record as “immeasurable”.

As for n-tetrapropoxy-β-cyclodextrin sulfate, the Conductivity in data set [3] was 4.5 10^-4 mho/cm per mg/ml. Moreover, the “Alcian Blue stain” value in data set [4] is recorded as “generate an Alcian Blue stain”. Also, in data set [5], the solubility is 37 gm/100 ml H2O.

Regarding β-cyclodextrin tetradecasulfate, the “Conductivity (average of 2 samples)” value in data set [3] (average of 2 samples) is 4.6 10^-4 mho/cm per mg/ml. Moreover, in data set [4], the “Alcian Blue stain” value is listed as “generate an Alcian Blue stain”.
